Holding throughout (format): functional, cell-based
The test system of one test is L1210. The test is described as follows: Compound was evaluated for in vitro antiproliferative activity against L1210 mouse leukemia cell line.
A further test has as its system DLD-1. Kind of test: Compound was evaluated for in vitro antiproliferative activity against DLD-1 human colon cancer cell line.
Another test has as its system Caov-3 cell line. The test is described as follows: Compound was evaluated for in vitro antiproliferative activity against CAOV-3 human ovarian cancer cell line.
Another test deals with A 172. Kind of test: Compound was evaluated for in vitro antiproliferative activity against A172 human CNS cancer cell line.
The test system of test [1] is KATO III stomach cancer cell line. Kind of test: Compound was evaluated for in vitro antiproliferative activity against KATO-III human gastric cancer cell line.

The term IC50 denotes the concentration needed to halve the response being measured. Low values mean higher potency, high ones lower potency.

For `CCC1(O)C(=O)OCc2c1cc1n(c2=O)Cc2cc3ccccc3nc2-1` (configuration not stated), the IC50 amounted to 35 nM in the test on L1210; 102 nM in the test on DLD-1; 32 nM in the test on Caov-3 cell line; 29 nM in the test with A 172; 448 nM in test [1].
Take `CC(C)NCCc1c2c(nc3ccccc13)-c1cc3c(c(=O)n1C2)COC(=O)C3(O)CCO` (configuration not stated): the IC50 in the test on L1210 was found to be 6730 nM; in the test on DLD-1, 619 nM; in the test on Caov-3 cell line, 483 nM; in the test with A 172, 3560 nM; in test [1], 4400 nM.
In the case of `COCOCCC1(O)C(=O)OCc2c1cc1n(c2=O)Cc2cc3ccccc3nc2-1` (configuration not stated), the IC50 was determined as 440 nM with L1210; 1860 nM in the test on DLD-1; 560 nM with Caov-3 cell line; 2620 nM in the test with A 172; 320 nM in test [1].
For `O=C1OCc2c(cc3n(c2=O)Cc2c-3nc3cc4c(cc3c2CCl)OCCO4)C1(O)CCO` (configuration not stated), the IC50 in the test on L1210 came out at 898 nM; in the test on DLD-1, 55 nM; with Caov-3 cell line, 10 nM; in the test with A 172, 391 nM; in test [1], 135 nM.
For `COCOCCC1(O)C(=O)OCc2c1cc1n(c2=O)Cc2c-1nc1cc3c(cc1c2CCl)OCCO3` (configuration not stated), the IC50 with L1210 turned out to be 307 nM; with DLD-1, 108 nM; with Caov-3 cell line it was 3 nM; in the test on A 172 it was 29 nM; in test [1] it was 1460 nM.
For `CCOCOCCC1(O)C(=O)OCc2c1cc1n(c2=O)Cc2c-1nc1ccccc1c2CCNC(C)C` (configuration not stated), the IC50 stood at 14100 nM in the test on L1210; 2100 nM in the test on DLD-1; 24 nM with Caov-3 cell line; 5460 nM in the test on A 172; 4210 nM in test [1].
For `CCC1(O)C(=O)OCc2c1cc1n(c2=O)Cc2c-1nc1ccccc1c2CCNC(C)C` (configuration not stated), the IC50 was found to be 460 nM in the test with L1210; 276 nM in the test on DLD-1; 4 nM in the test with Caov-3 cell line; 167 nM in the test with A 172; 623 nM in test [1].
Consider `COCOCCC1(O)C(=O)OCc2c1cc1n(c2=O)Cc2c-1nc1ccccc1c2CCNC(C)C` (configuration not stated), for which the IC50 in the test on DLD-1 came out at 549 nM; with Caov-3 cell line it was 91 nM; in the test on A 172 it was 12200 nM; in test [1], 3270 nM.
In the case of `CCOCOCCC1(O)C(=O)OCc2c1cc1n(c2=O)Cc2c-1nc1cc3c(cc1c2CCl)OCCO3` (configuration not stated), the figures for the IC50 (in the test on DLD-1; in the test with Caov-3 cell line; in test [1]) were 3880 nM, 3760 nM and 5920 nM, respectively.
On to `CCC1(O)C(=O)OCc2c1cc1n(c2=O)Cc2c-1nc1cc3c(cc1c2CCl)OCCO3` (configuration not stated), for which the IC50 with L1210 is 14000 nM; in the test on DLD-1, 2780 nM; in the test on Caov-3 cell line, 87 nM; with A 172, 54 nM; in test [1], 6110 nM.
